Reference: US10294202B2, “Pyrrolidinones as herbicides” (FMC Corporation, priority 2013, dated 2019)

Legend:
nutsedge, yellow = assay: Test C pre-/postemergence herbicide test; format: in vivo, Cyperus esculentus
How it was run: (§1)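 Compound solutions contained surfactant in a non-phytotoxic solvent. These were sprayed onto pots of loam/sand sown with seeds, and onto young plants (2 to 18 cm, 1- to 4-leaf) in sphagnum peat–vermiculite mix. Visual injury scores (0 none, 100 complete control) were recorded after 13 to 15 days.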

ducksalad = assay: Test B flooded paddy test; format: in vivo, Heteranthera limosa; details: 500 g ai/ha, Flood; scale of 0 to 100 where 0 is no effect and 100 is complete control
How it was run: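 In-water application to pots flooded 3 cm deep, plants at 2-leaf stage. Held in greenhouse 13–15 days at constant flood depth. Scored 0–100 by eye against controls.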

soybean = assay: Test C pre-/postemergence herbicide test; format: in vivo, Glycine max
How it was run: as §1

corn [1] = assay: Test C pre-/postemergence herbicide test; format: in vivo, Zea mays
How it was run: as §1

blackgrass = assay: Test C pre-/postemergence herbicide test; format: in vivo, Alopecurus myosuroides
How it was run: as §1

morningglory = assay: Test C pre-/postemergence herbicide test; format: in vivo, Ipomoea coccinea
How it was run: as §1

lambsquarters = assay: Test C pre-/postemergence herbicide test; format: in vivo, Chenopodium album
How it was run: as §1

barnyardgrass = assay: Test A pre-/postemergence herbicide test; format: in vivo, Echinochloa crus-galli
How it was run: (§2)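 Formulated compound (non-phytotoxic solvent, surfactant) sprayed pre- onto soil of seeded loam/sand pots or post- onto seedlings at 1–2 leaves; ~10 d greenhouse; 0–100 visual control rating versus untreated.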

oilseed rape = assay: Test C pre-/postemergence herbicide test; format: in vivo, Brassica napus
How it was run: as §1

corn [2] = assay: Test A pre-/postemergence herbicide test; format: in vivo, Zea mays; details: Postemergence
How it was run: as §2

pigweed = assay: Test A pre-/postemergence herbicide test; format: in vivo, Amaranthus retroflexus
How it was run: as §2

[3] = Postemergence, 16 g ai/ha, scale 0 to 100 (0 no effect, 100 complete control)
[4] = Postemergence, 31 g ai/ha, scale 0 to 100 (0 no effect, 100 complete control)
[5] = Postemergence, 62 g ai/ha, scale 0 (no effect) to 100 (complete control)
[6] = Postemergence, 125 g ai/ha, scale 0 to 100 (0 no effect, 100 complete control)
[7] = Preemergence, 31 g ai/ha, scale 0 to 100, 0 is no effect and 100 is complete control
[8] = Preemergence, 62 g ai/ha, scale 0 to 100 (0 no effect, 100 complete control)
[9] = Preemergence, 125 g ai/ha, scale 0 to 100 (0 no effect, 100 complete control)
[10] = Preemergence, 16 g ai/ha, scale 0 to 100
[11] = Postemergence, 500 g ai/ha, 0 to 100 scale (0 no effect, 100 complete control)
[12] = Preemergence, 125 g ai/ha, 0 to 100 scale where 0 is no effect and 100 is complete control
[13] = preemergence, 500 g ai/ha, 0 to 100 scale, 0 is no effect and 100 is complete control
[14] = 500 g ai/ha, 0 to 100 scale (0 no effect, 100 complete control)
[15] = Postemergence, 125 g ai/ha, visual rating on 0 to 100 scale (0 no effect, 100 complete control), approx. 10 days
[16] = Postemergence, 250 g ai/ha, scale 0 to 100 (0 no effect, 100 complete control)
[17] = Preemergence, 125 g ai/ha, scale 0 to 100
[18] = Preemergence, 500 g ai/ha, visual rating on 0 to 100 scale (0 no effect, 100 complete control)
[19] = 125 g ai/ha, visual rating on 0 to 100 scale (0 no effect, 100 complete control), approx. 10 days

CN1CC(c2cccc(C(F)(F)F)c2)C(C(=O)Nc2ccccc2F)C1=O (stereo not drawn) [Compound 277]
Plant response rating, Nutsedge, Yellow (nutsedge, yellow; [3]): 0
Plant response rating, Nutsedge, Yellow (nutsedge, yellow; [4]): 10
Plant response rating, Nutsedge, Yellow (nutsedge, yellow; [5]): 0
Plant response rating, Nutsedge, Yellow (nutsedge, yellow; [6]): 0
Nutsedge, Yellow plant response rating (nutsedge, yellow; [7]): 0
Nutsedge, Yellow plant response rating (nutsedge, yellow; [8]): 20
Plant response rating, Nutsedge, Yellow (nutsedge, yellow; [9]): 20
Plant response rating, Nutsedge, Yellow (nutsedge, yellow; [10]): 0
Plant response rating, Ducksalad (ducksalad): 100
Plant response rating, Soybean (soybean; [3]): 0
Plant response rating, Soybean (soybean; [4]): 0
Plant response rating, Soybean (soybean; [5]): 0
Plant response rating, Soybean (soybean; [6]): 0
Soybean plant response rating (soybean; [7]): 0
Soybean plant response rating (soybean; [8]): 0
Plant response rating, Soybean (soybean; [9]): 5
Plant response rating, Soybean (soybean; [10]): 0
Plant response rating, Corn (corn [1]; [3]): 0
Plant response rating, Corn (corn [1]; [4]): 0
Plant response rating, Corn (corn [1]; [5]): 20
Plant response rating, Corn (corn [1]; [6]): 10
Corn plant response rating (corn [1]; [7]): 25
Corn plant response rating (corn [1]; [8]): 85
Plant response rating, Corn (corn [1]; [9]): 90
Plant response rating, Corn (corn [1]; [10]): 0
Plant response rating, Blackgrass (blackgrass; [3]): 0
Plant response rating, Blackgrass (blackgrass; [4]): 0
Plant response rating, Blackgrass (blackgrass; [5]): 0
Plant response rating, Blackgrass (blackgrass; [6]): 0
Blackgrass plant response rating (blackgrass; [7]): 70
Blackgrass plant response rating (blackgrass; [8]): 70
Plant response rating, Blackgrass (blackgrass; [9]): 90
Plant response rating, Blackgrass (blackgrass; [10]): 40
Plant response rating, Morningglory (morningglory; [3]): 15
Plant response rating, Morningglory (morningglory; [4]): 30
Plant response rating, Morningglory (morningglory; [5]): 30
Plant response rating, Morningglory (morningglory; [6]): 40
Morningglory plant response rating (morningglory; [7]): 0
Morningglory plant response rating (morningglory; [8]): 0
Plant response rating, Morningglory (morningglory; [9]): 45
Plant response rating, Morningglory (morningglory; [10]): 0
Plant response rating, Lambsquarters (lambsquarters; [3]): 25
Plant response rating, Lambsquarters (lambsquarters; [4]): 30
Plant response rating, Lambsquarters (lambsquarters; [5]): 40
Plant response rating, Lambsquarters (lambsquarters; [6]): 40
Lambsquarters plant response rating (lambsquarters; [7]): 20
Lambsquarters plant response rating (lambsquarters; [8]): 75
Plant response rating, Lambsquarters (lambsquarters; [9]): 80
Plant response rating, Lambsquarters (lambsquarters; [10]): 0
Plant response rating, Barnyardgrass (barnyardgrass; Postemergence, 125 g ai/ha, 0 to 100 scale, 0 is no effect, 100 is complete control): 90
Plant response rating, Barnyardgrass (barnyardgrass; [11]): 90
Plant response rating, Barnyardgrass (barnyardgrass; [12]): 90
Plant response rating, Barnyardgrass (barnyardgrass; [13]): 90
Plant response rating, Oilseed Rape (oilseed rape; [3]): 0
Plant response rating, Oilseed Rape (oilseed rape; [4]): 0
Plant response rating, Oilseed Rape (oilseed rape; [5]): 0
Plant response rating, Oilseed Rape (oilseed rape; [6]): 0
Oilseed Rape plant response rating (oilseed rape; [7]): 0
Oilseed Rape plant response rating (oilseed rape; [8]): 0
Plant response rating, Oilseed Rape (oilseed rape; [9]): 80
Plant response rating, Oilseed Rape (oilseed rape; [10]): 0
Plant response rating, Corn (corn [2]; 125 g ai/ha, 0 to 100 scale, 0 is no effect, 100 is complete control): 90
Plant response rating, Corn (corn [2]; [14]): 90
Plant response rating, Pigweed (pigweed; [15]): 30
Plant response rating, Pigweed (pigweed; [11]): 30
Plant response rating, Pigweed (pigweed; [12]): 20
Plant response rating, Pigweed (pigweed; [13]): 30

O=C1NCC(c2cccc(C(F)(F)F)c2)C1C(=O)Nc1ccccc1Cl (stereo not drawn) [Compound 312]
Plant response rating, Nutsedge, Yellow (nutsedge, yellow; [4]): 0
Plant response rating, Nutsedge, Yellow (nutsedge, yellow; [5]): 0
Plant response rating, Nutsedge, Yellow (nutsedge, yellow; [6]): 0
Plant response rating, Nutsedge, Yellow (nutsedge, yellow; [16]): 0
Nutsedge, Yellow plant response rating (nutsedge, yellow; [7]): 0
Nutsedge, Yellow plant response rating (nutsedge, yellow; [8]): 35
Plant response rating, Nutsedge, Yellow (nutsedge, yellow; [17]): 0
Plant response rating (scale of 0 to 100), Nutsedge, Yellow (nutsedge, yellow; Preemergence, 250 g ai/ha): 0
Plant response rating, Ducksalad (ducksalad): 100
Plant response rating, Soybean (soybean; [4]): 0
Plant response rating, Soybean (soybean; [5]): 0
Plant response rating, Soybean (soybean; [6]): 0
Plant response rating, Soybean (soybean; [16]): 0
Soybean plant response rating (soybean; [8]): 0
Plant response rating, Soybean (soybean; [17]): 0
Plant response rating (scale of 0 to 100), Soybean (soybean; Preemergence, 250 g ai/ha): 0
Plant response rating, Corn (corn [1]; [4]): 0
Plant response rating, Corn (corn [1]; [5]): 15
Plant response rating, Corn (corn [1]; [6]): 10
Plant response rating, Corn (corn [1]; [16]): 10
Corn plant response rating (corn [1]; [7]): 10
Corn plant response rating (corn [1]; [8]): 60
Plant response rating, Corn (corn [1]; [17]): 55
Plant response rating (scale of 0 to 100), Corn (corn [1]; Preemergence, 250 g ai/ha): 70
Plant response rating, Blackgrass (blackgrass; [4]): 0
Plant response rating, Blackgrass (blackgrass; [5]): 0
Plant response rating, Blackgrass (blackgrass; [6]): 0
Plant response rating, Blackgrass (blackgrass; [16]): 0
Blackgrass plant response rating (blackgrass; [7]): 40
Blackgrass plant response rating (blackgrass; [8]): 45
Plant response rating, Blackgrass (blackgrass; [17]): 70
Plant response rating (scale of 0 to 100), Blackgrass (blackgrass; Preemergence, 250 g ai/ha): 75
Plant response rating, Morningglory (morningglory; [4]): 0
Plant response rating, Morningglory (morningglory; [5]): 0
Plant response rating, Morningglory (morningglory; [6]): 10
Plant response rating, Morningglory (morningglory; [16]): 20
Morningglory plant response rating (morningglory; [7]): 0
Morningglory plant response rating (morningglory; [8]): 35
Plant response rating, Morningglory (morningglory; [17]): 40
Plant response rating (scale of 0 to 100), Morningglory (morningglory; Preemergence, 250 g ai/ha): 55
Plant response rating, Lambsquarters (lambsquarters; [4]): 65
Plant response rating, Lambsquarters (lambsquarters; [5]): 75
Plant response rating, Lambsquarters (lambsquarters; [6]): 95
Plant response rating, Lambsquarters (lambsquarters; [16]): 55
Lambsquarters plant response rating (lambsquarters; [7]): 0
Lambsquarters plant response rating (lambsquarters; [8]): 0
Plant response rating, Lambsquarters (lambsquarters; [17]): 50
Plant response rating (scale of 0 to 100), Lambsquarters (lambsquarters; Preemergence, 250 g ai/ha): 60
Plant response rating, Barnyardgrass (barnyardgrass; [15]): 80
Plant response rating, Barnyardgrass (barnyardgrass; [11]): 90
Plant response rating, Barnyardgrass (barnyardgrass; [12]): 80
Barnyardgrass plant response rating (barnyardgrass; [18]): 90
Plant response rating, Oilseed Rape (oilseed rape; [4]): 0
Plant response rating, Oilseed Rape (oilseed rape; [5]): 0
Plant response rating, Oilseed Rape (oilseed rape; [6]): 0
Plant response rating, Oilseed Rape (oilseed rape; [16]): 0
Oilseed Rape plant response rating (oilseed rape; [7]): 0
Oilseed Rape plant response rating (oilseed rape; [8]): 0
Plant response rating, Oilseed Rape (oilseed rape; [17]): 15
Plant response rating (scale of 0 to 100), Oilseed Rape (oilseed rape; Preemergence, 250 g ai/ha): 30
Plant response rating, Corn (corn [2]; [19]): 60
Plant response rating, Corn (corn [2]; [14]): 80
Plant response rating, Pigweed (pigweed; [15]): 20
Plant response rating, Pigweed (pigweed; [11]): 30
Plant response rating, Pigweed (pigweed; [12]): 0
Pigweed plant response rating (pigweed; [18]): 20

O=C1NCC(c2cccc(Br)c2)C1C(=O)Nc1ccccc1F (stereo not drawn) [Compound 307]
Nutsedge, Yellow plant response rating (nutsedge, yellow; [7]): 0
Nutsedge, Yellow plant response rating (nutsedge, yellow; [8]): 0
Plant response rating, Nutsedge, Yellow (nutsedge, yellow; [17]): 0
Plant response rating (scale of 0 to 100), Nutsedge, Yellow (nutsedge, yellow; Preemergence, 250 g ai/ha): 0
Plant response rating, Ducksalad (ducksalad): 98
Soybean plant response rating (soybean; [8]): 0
Plant response rating, Soybean (soybean; [17]): 0
Plant response rating (scale of 0 to 100), Soybean (soybean; Preemergence, 250 g ai/ha): 0
Corn plant response rating (corn [1]; [7]): 0
Corn plant response rating (corn [1]; [8]): 0
Plant response rating, Corn (corn [1]; [17]): 40
Plant response rating (scale of 0 to 100), Corn (corn [1]; Preemergence, 250 g ai/ha): 40
Blackgrass plant response rating (blackgrass; [7]): 0
Blackgrass plant response rating (blackgrass; [8]): 0
Plant response rating, Blackgrass (blackgrass; [17]): 10
Plant response rating (scale of 0 to 100), Blackgrass (blackgrass; Preemergence, 250 g ai/ha): 5
Morningglory plant response rating (morningglory; [7]): 0
Morningglory plant response rating (morningglory; [8]): 0
Plant response rating, Morningglory (morningglory; [17]): 0
Plant response rating (scale of 0 to 100), Morningglory (morningglory; Preemergence, 250 g ai/ha): 0
Lambsquarters plant response rating (lambsquarters; [7]): 0
Lambsquarters plant response rating (lambsquarters; [8]): 0
Plant response rating, Lambsquarters (lambsquarters; [17]): 10
Plant response rating (scale of 0 to 100), Lambsquarters (lambsquarters; Preemergence, 250 g ai/ha): 85
Plant response rating, Barnyardgrass (barnyardgrass; [15]): 70
Plant response rating, Barnyardgrass (barnyardgrass; [11]): 90
Plant response rating, Barnyardgrass (barnyardgrass; [12]): 80
Barnyardgrass plant response rating (barnyardgrass; [18]): 90
Oilseed Rape plant response rating (oilseed rape; [7]): 0
Oilseed Rape plant response rating (oilseed rape; [8]): 0
Plant response rating, Oilseed Rape (oilseed rape; [17]): 0
Plant response rating (scale of 0 to 100), Oilseed Rape (oilseed rape; Preemergence, 250 g ai/ha): 5
Plant response rating, Corn (corn [2]; [19]): 0
Plant response rating, Corn (corn [2]; [14]): 60
Plant response rating, Pigweed (pigweed; [15]): 0
Plant response rating, Pigweed (pigweed; [11]): 0
Plant response rating, Pigweed (pigweed; [12]): 0
Pigweed plant response rating (pigweed; [18]): 0
